Experimental data: patent US20160296499A1, “Spiroindoline Antiparasitic Derivatives” (ZOETIS SERVICES LLC, priority 2013, published 2016)
Where two headings read alike, the source gives them in different places.

Experiments:
Haemonchus contortus L3 = test: Haemonchus contortus, Larvae Stage 3 (HcL3) In Vitro Assay; conditions: Haemonchus contortus
[1] = test system: Dirofilaria immitis microfilariae; test: Dirofilaria immitis, Microfilariae (DiMF) In Vitro Assay; conditions: Dirofilaria immitis
[2] = target: T1, bovine vesicular acetylcholine transporter (VAChT) (Bos taurus, UniProt E1BK36); test: Radioligand Binding Assay; conditions: Bovine binding Ki, CHO-K1 membranes with recombinant bovine VAChT, [3H]Compound X6 0.3 nM
T1 sequence (E1BK36 1-524): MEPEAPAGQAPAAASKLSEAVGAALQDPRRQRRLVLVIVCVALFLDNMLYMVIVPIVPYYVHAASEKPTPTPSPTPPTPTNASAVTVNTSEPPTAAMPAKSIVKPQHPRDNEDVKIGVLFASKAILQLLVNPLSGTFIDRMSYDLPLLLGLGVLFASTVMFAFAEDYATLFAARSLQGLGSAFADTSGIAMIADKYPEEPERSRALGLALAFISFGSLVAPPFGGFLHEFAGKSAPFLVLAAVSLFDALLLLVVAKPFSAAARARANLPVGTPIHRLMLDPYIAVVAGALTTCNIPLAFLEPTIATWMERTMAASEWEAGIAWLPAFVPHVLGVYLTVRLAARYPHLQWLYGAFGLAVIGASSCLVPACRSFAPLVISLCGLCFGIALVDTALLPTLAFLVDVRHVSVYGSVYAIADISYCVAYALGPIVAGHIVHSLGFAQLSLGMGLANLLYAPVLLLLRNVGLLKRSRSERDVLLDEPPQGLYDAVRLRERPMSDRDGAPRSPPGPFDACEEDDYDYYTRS

[3] = 96 h, read-out: HcL3 MEC, Minimal Effective Concentration whereby worm motility is inhibited by approximately 70%, 37° C., tested 0.001-100 μM
[4] = 72 h, read-out: Di MF, MEC, decrease in microfilariae motility by visual assessment, curve starting at 100 μM
[5] = 96 hours, 37° C., read-out: HcL3 MEC

Structure (SMILES) | minimal effective concentration (Haemonchus contortus L3; [3]) | minimal effective concentration [1, 4] | Ki [2] | minimal effective concentration (Haemonchus contortus L3; [5]) | minimal effective concentration ([1]; 72 hours, read-out: Di MF)
O=C(NCc1ccnc(Cl)c1)N1CC2(CCN(C/C=C/c3ccc(C(F)(F)F)cn3)CC2)c2cc(OC(F)(F)F)ccc21 [Example 182, (E)-N-((2-chloropyridin-4-yl)methyl)-5-(trifluoromethoxy)-1′-(3-(5-(trifluoromethyl)pyridin-2-yl)allyl)spiro[indoline-3,4′-piperidine]-1-carboxamide] | 10 µM | 10 µM | 1470 nM | – | –
O=C(NCc1ncccn1)N1CC2(CCN(C/C=C/c3ccc(Cl)c(Cl)c3)CC2)c2c1ccc1scnc21 [Example 14, (E)-1-(3-(3,4-dichlorophenyl)allyl)-N-(pyrimidin-2-ylmethyl)spiro[piperidine-4,8′-thiazolo[4,5-e]indole]-6′(7′H)-carboxamide] | 100 µM | 10 µM | 721 nM | – | –
O=C(NCc1ccnc(F)c1)N1CC2(CCN(C/C=C/c3ccc(Cl)cc3)CC2)c2c1cccc2C(F)(F)F [Example 92, (E)-1′-(3-(4-chlorophenyl)allyl)-N-((2-fluoropyridin-4-yl)methyl)-4-(trifluoromethyl)spiro[indoline-3,4′-piperidine]-1-carboxamide] | 5 µM | 5 µM | 796 nM | – | –
Cc1nc2c3c(ccc2s1)N(C(=O)NCc1ccnc(Cl)c1)CC31CCN(C/C=C/c2ccc(C(F)(F)F)cn2)CC1 [Example 45, (E)-N-((2-chloropyridin-4-yl)methyl)-2′-methyl-1-(3-(5-(trifluoromethyl)pyridin-2-yl)allyl)spiro[piperidine-4,8′-thiazolo[4,5-e]indole]-6′(7′H)-carboxamide] | > 100 µM | 33 µM | 3220 nM | – | –
Cn1ccc(CNC(=O)N2CC3(CCN(C/C=C/c4ccc(Cl)c(Cl)c4)CC3)c3c2ccc2scnc32)n1 [Example 28, (E)-1-(3-(3,4-dichlorophenyl)allyl)-N-((1-methyl-1H-pyrazol-3-yl)methyl)spiro[piperidine-4,8′-thiazolo[4,5-e]indole]-6′(7′H)-carboxamide] | 100 µM | 10 µM | 511 nM | – | –
O=C(NCc1ccnc(Cl)c1)N1CC2(CCN(C/C=C/c3ccc(Cl)cc3)CC2)c2c1ccc1scnc21 [Example 39, (E)-1-(3-(4-chlorophenyl)allyl)-N-((2-chloropyridin-4-yl)methyl)spiro[piperidine-4,8′-thiazolo[4,5-e]indole]-6′(7′H)-carboxamide] | 6.9 µM | 3.3 µM | 90 nM | – | –
O=C(NCc1ccnc(Cl)c1)N1CC2(CCN(C/C=C/c3ccc(Cl)cc3)CC2)c2c(OC(F)(F)F)ccc(Cl)c21 [Example 121, (E)-7-chloro-1′-(3-(4-chlorophenyl)allyl)-N-((2-chloropyridin-4-yl)methyl)-4-(trifluoromethoxy)spiro[indoline-3,4′-piperidine]-1-carboxamide] | 100 µM | 6.9 µM | 1260 nM | – | –
O=C(NCc1nccs1)N1CC2(CCN(C/C=C/c3ccc(Cl)c(Cl)c3)CC2)c2c1ccc1scnc21 [Example 23, (E)-1-(3-(3,4-dichlorophenyl)allyl)-N-(thiazol-2-ylmethyl)spiro[piperidine-4,8′-thiazolo[4,5-e]indole]-6′(7′H)-carboxamide] | 100 µM | 10 µM | 205 nM | – | –
O=C(NCc1ccc(Cl)cc1)N1CC2(CCN(C/C=C/c3ccc(Cl)c(Cl)c3)CC2)c2c1ccc1scnc21 [Example 20, (E)-N-(4-chlorobenzyl)-1-(3-(3,4-dichlorophenyl)allyl)spiro[piperidine-4,8′-thiazolo[4,5-e]indole]-6′(7′H)-carboxamide] | 100 µM | 13.5 µM | 2120 nM | – | –
COc1ccc(/C=C/CN2CCC3(CC2)CN(C(=O)NCc2ccnc(Cl)c2)c2ccc4scnc4c23)cc1 [Example 42, (E)-N-((2-chloropyridin-4-yl)methyl)-1-(3-(4-methoxyphenyl)allyl)spiro[piperidine-4,8′-thiazolo[4,5-e]indole]-6′(7′H)-carboxamide] | > 100 µM | 10 µM | 55 nM | – | –
O=C(NCc1ccnc(F)c1)N1CC2(CCN(C/C=C/c3ccc(Cl)cc3)CC2)c2cc(C3CC3)ccc21 [Example 84, (E)-1′-(3-(4-chlorophenyl)allyl)-5-cyclopropyl-N-((2-fluoropyridin-4-yl)methyl)spiro[indoline-3,4′-piperidine]-1-carboxamide] | – | – | 680 nM | 100 µM | 3.3 µM
O=C(NCc1ccnc(F)c1)N1CC2(CCN(C/C=C/c3ccc(Cl)cc3)CC2)c2c(C3CC3)cccc21 [Example 93, (E)-1′-(3-(4-chlorophenyl)allyl)-4-cyclopropyl-N-((2-fluoropyridin-4-yl)methyl)spiro[indoline-3,4′-piperidine]-1-carboxamide] | 100 µM | 5.7 µM | 958 nM | – | –
N#Cc1ccc(/C=C/CN2CCC3(CC2)CN(C(=O)NCc2ccnc(Cl)c2)c2c(F)ccc(C(F)(F)F)c23)cc1 [Example 98, (E)-N-((2-chloropyridin-4-yl)methyl)-1′-(3-(4-cyanophenyl)allyl)-7-fluoro-4-(trifluoromethyl)spiro[indoline-3,4′-piperidine]-1-carboxamide] | 100 µM | 10 µM | 1570 nM | – | –
O=C(NCc1ccnc(Cl)c1)N1CC2(CCN(C/C=C/c3ccc(F)cc3)CC2)c2cc(Cl)c(Cl)cc21 [Example 141, (E)-5,6-dichloro-N-((2-chloropyridin-4-yl)methyl)-1′-(3-(4-fluorophenyl)allyl)spiro[indoline-3,4′-piperidine]-1-carboxamide] | – | – | 164 nM | 3.3 µM | 4.4 µM
COc1ccc(/C=C/CN2CCC3(CC2)CN(C(=O)NCc2ccnc(Cl)c2)c2cc(C(F)(F)F)ccc23)cc1 [Example 125, (E)-N-((2-chloropyridin-4-yl)methyl)-1′-(3-(4-methoxyphenyl)allyl)-6-(trifluoromethyl)spiro[indoline-3,4′-piperidine]-1-carboxamide] | 1 µM | 10 µM | 20.4 nM | – | –
O=C(NCc1ccnc(Cl)c1)N1CC2(CCN(C/C=C/c3ccc(C(F)(F)F)cn3)CC2)c2cc(C(F)(F)F)ccc21 [Example 151, (E)-N-((2-chloropyridin-4-yl)methyl)-5-(trifluoromethyl)-1′-(3-(5-(trifluoromethyl)pyridin-2-yl)allyl)spiro[indoline-3,4′-piperidine]-1-carboxamide] | 5.7 µM | 4.3 µM | 518 nM | – | –
N#Cc1ccc2c(n1)C1(CCN(C/C=C/c3ccc(Cl)c(Cl)c3)CC1)CN2C(=O)NCc1ccnc(Cl)c1 [Example 67, (E)-N-((2-chloropyridin-4-yl)methyl)-5′-cyano-1-(3-(3,4-dichlorophenyl)allyl)spiro[piperidine-4,3′-pyrrolo[3,2-b]pyridine]-1′(2′H)-carboxamide] | 10 µM | 5.7 µM | 33.5 nM | – | –
N#Cc1cc2c(cn1)N(C(=O)NCc1ccnc(Cl)c1)CC21CCN(C/C=C/c2ccc(Cl)cc2)CC1 [Example 86, (E)-1-(3-(4-chlorophenyl)allyl)-N-((2-chloropyridin-4-yl)methyl)-5′-cyanospiro[piperidine-4,3′-pyrrolo[2,3-c]pyridine]-1′(2′H)-carboxamide] | 3.3 µM | 5.7 µM | 31.7 nM | – | –
O=C(NCc1ccnc(Cl)c1)N1CC2(CCN(C/C=C/c3ccc(Cl)c(Cl)c3)CC2)c2cc(Cl)c(C(F)(F)F)cc21 [Example 135, (E)-5-chloro-N-((2-chloropyridin-4-yl)methyl)-1′-(3-(3,4-dichlorophenyl)allyl)-6-(trifluoromethyl)spiro[indoline-3,4′-piperidine]-1-carboxamide] | – | – | 118 nM | 3.3 µM | 57.4 µM
O=C(NCc1ccnc(Cl)c1)N1CC2(CCN(C/C=C/c3ccc(F)cc3)CC2)c2cc(OC(F)(F)F)ccc21 [Example 163, (E)-N-((2-chloropyridin-4-yl)methyl)-1′-(3-(4-fluorophenyl)allyl)-5-(trifluoromethoxy)spiro[indoline-3,4′-piperidine]-1-carboxamide] | – | – | 554 nM | 10.1 µM | 2.5 µM
O=C(NCc1ccnc(Cl)c1)N1CC2(CCN(C/C=C/c3ccc(Cl)cc3)CC2)c2c1ccc(Cl)c2Cl [Example 144, (E)-4,5-dichloro-1′-(3-(4-chlorophenyl)allyl)-N-((2-chloropyridin-4-yl)methyl)spiro[indoline-3,4′-piperidine]-1-carboxamide] | – | – | 26.2 nM | 3.3 µM | 10 µM
